Test results as given in patent US20250032625A1, “HETEROBIFUNCTIONAL MOLECULES AS TEAD INHIBITORS” (Merck Patent GmbH, priority 2021, published 2025).
Where two headings read alike, the source gives them in different places.

Legend:
TEAD1 in NCI-H226 cells = TEAD1 in NCI-H226 cells (Homo sapiens (Human), UniProt P28347); assay: TEAD degradation in NCI-H226 cell line (immunofluorescence); assay type: cell-based
Method in brief: (§1)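 SK-HEP1 and NCI-H226 cells were treated in duplicate for 16 or 24 h at 37 °C with compound (10 points, 1:3, top 30 µM final). After fixation, TEAD1 was immunostained with anti-TEF1 and per-cell fluorescence quantified by high-content imaging. DC50 from curve fitting.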

TEAD1 in SK-HEP1 cells = TEAD1 in SK-HEP1 cells (Homo sapiens (Human), UniProt P28347); assay: TEAD degradation in SK-HEP1 cell line (immunofluorescence); assay type: cell-based
Method in brief: as §1

hsTEAD1 (209-426) [1] = molecular target: T1, hsTEAD1 (209-426) (Homo sapiens (Human), UniProt P28347); assay: Surface Plasmon Resonance (SPR) assay; assay type: binding; details: Biacore 4000, 15° C., 1:1 Langmuir model, read-out: KD TEAD1 (209-426)
Experimental: The kinetic and affinity parameters of protein-exemplary compound interactions were evaluated by SPR. hsTEAD1 (209-426) was immobilized onto a CM7 (Series S) sensor chip via the standard amine coupling procedure, at 15° C. Prior to immobilization, the carboxymethylated surface of the chip was activated with 400 mM 1-ethyl-3-(3-dimethylaminopropyl)-carbodiimide and 100 mM N-hydroxysuccinimide for 10 min. hsTEAD1 (209-426) was diluted to 11 μg/mL in 10 mM Bis-Tris at pH 6.5 and immobilized on the activated surface chip for 8 and 10 min, in order to reach 6000 to 9000 response units (RU). The remaining activated carboxymethylated groups were blocked with a 7 min injection of 1 M ethanolamine pH 8.5 after which the surface chip was washed with 0.5% (w/v) sodium dodecyl sulphate and 50 mM glycine. HBS-N, which consists of 10 mM HEPES pH 7.4 and 150 mM NaCl, was used as the background buffer during immobilization. Exemplary compounds were prediluted in DMSO, diluted 1:50 in running buffer (20 mM Tris pH 7.4, 150 mM NaCl, 1 mM DTT, 5 mM MgCl2, 0.1 mM EGTA, 0.05% CHAPS) and injected at ten different concentrations using two-fold dilution series, from 100 μM to 0.2 μM. A DMSO solvent correction (1%-3%) was performed to account for variations in bulk signal and to achieve high-quality data. Interaction analysis cycles consisted of a 240 sec sample injection (30 μL/min; association phase) followed by 600 sec of buffer flow (dissociation phase).
All sensorgrams were processed by first subtracting the binding response recorded from the control surface (reference spot), followed by subtracting of the buffer blank injection from the reaction spot. All datasets were fit to a simple 1:1 Langmuir interaction model to determine the kinetic rate constants, KD. Experiments were performed on a Biacore 4000 (Cytiva, Uppsala, Sweden) at 15° C. and the interactions were evaluated using the provided Biacore 4000 evaluation software.

hsTEAD3 (216-435) = hsTEAD3 (216-435) (Homo sapiens (Human), UniProt Q99594); assay: Thermal shift measurement / Differential Scanning Fluorimetry (DSF); assay type: binding; details: 100 uM compound, 2 hours at 4° C., triplicates; read-out: ΔTm TEAD3 216-435
Experimental: (§2) Interaction of exemplary compounds with the various TEAD isoforms TEAD1, TEAD2, TEAD3, and TEAD4 was performed in a DSF assay. YAP-binding domains (YBD) of the four isoforms were subcloned and heterogeneously expressed in E. coli as a host. Initial purification was perfomed by using affinity tags, which got removed by overnight protease treatment. Further purification of TEAD isoforms was performed by Size-Exclusion Chromatography (SEC). Target protein containing fractions were pooled, concentrated with an Amicon (10 KDa MWCO) and quantified using the Bradford assay. Exemplary compound testing in the DSF assay for determining the shift of the TEAD isoform melting temperatures has been performed as described below: DSF was performed in MicroAmpTM EnduraPlateTM Optical 96-Well Clear Reaction Plates (Applied Biosystems, Life Technologies, California, USA) using a QuantStudio 7 Flex Real-Time PCR System (Applied Biosystems). Protein samples were briefly centrifuged before preparation. The final reaction mixture (20 μL of total volume) contained 11.8 μM of […]1 (209-426), 7.3 μM of […]2 (217-447), 7.9 μM of […]3 (216-435) or 11.7 μM of […]4 (217-424), and 2 or 4-fold of Protein Thermal ShiftTM Dye (Applied Biosystems) diluted in protein buffer-20 mM Tris pH 8.0, 150 mM NaCl (+0.5 mM TCEP for TEAD1 experiments). Prior to the addition of the dye, proteins were incubated with either 1 μL DMSO 100% (apo) or 100 uM of each exemplary compound (1 μL at 2 mM in 100% DMSO added to the […] reaction mixture) for 2 hours at 4° C. The melting curve data was recorded from 25 to 90° C. with an increment rate of 0.016° C.s^-1. Excitation and emission filters were applied for Protein Thermal ShiftTM Dye (470 nm and 520 nm, respectively) and for ROX reference dye (580 nm and 623 nm, respectively). The melting temperatures (Tm) were obtained by calculating the midpoint of each transition, using the Protein Thermal Shift SoftwareTM version 1.3. The thermal stability effect of each compound (ΔTm) was calculated by subtracting the calculated Tm in presence and absence (apo) of compound. All samples were tested in triplicates.

hsTEAD4 (217-424) = hsTEAD4 (217-424) (Homo sapiens (Human), UniProt Q15561); assay: as above; assay type: binding; details: 100 uM compound, 2 hours at 4° C., triplicates; read-out: ΔTm TEAD4 217-434
Experimental: as §2

hsTEAD2 (217-447) = hsTEAD2 (217-447) (Homo sapiens (Human), UniProt Q15562); assay: as above; assay type: binding; details: 100 uM compound, 2 hours at 4° C., triplicates; read-out: ΔTm TEAD2 (217-447)
Experimental: as §2

hsTEAD1 (209-426) [2] = molecular target: T1, hsTEAD1 (209-426); assay: as above; assay type: binding; details: 100 uM compound, 2 hours at 4° C., triplicates; read-out: ΔTm TEAD1 (209-426)
Experimental: as §2

[3] = 24 h incubation, read-out: DC50 NCI-H226 24 h
[4] = 24 hours, ranges, read-out: DC50 NCI-H226
[5] = 24 h incubation, read-out: DC50 SK-HEP1 24 h
[6] = 24 hours, ranges, read-out: DC50 SK-HEP1

Chain of hsTEAD3 (216-435) (Q99594 216-435): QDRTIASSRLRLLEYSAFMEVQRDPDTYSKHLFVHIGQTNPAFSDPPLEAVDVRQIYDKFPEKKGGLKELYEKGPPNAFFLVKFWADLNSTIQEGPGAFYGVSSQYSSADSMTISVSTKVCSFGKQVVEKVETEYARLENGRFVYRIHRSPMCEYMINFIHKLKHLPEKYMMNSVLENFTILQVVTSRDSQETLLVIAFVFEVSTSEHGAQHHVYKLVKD
Chain of TEAD1 in NCI-H226 cells (P28347 whole entry): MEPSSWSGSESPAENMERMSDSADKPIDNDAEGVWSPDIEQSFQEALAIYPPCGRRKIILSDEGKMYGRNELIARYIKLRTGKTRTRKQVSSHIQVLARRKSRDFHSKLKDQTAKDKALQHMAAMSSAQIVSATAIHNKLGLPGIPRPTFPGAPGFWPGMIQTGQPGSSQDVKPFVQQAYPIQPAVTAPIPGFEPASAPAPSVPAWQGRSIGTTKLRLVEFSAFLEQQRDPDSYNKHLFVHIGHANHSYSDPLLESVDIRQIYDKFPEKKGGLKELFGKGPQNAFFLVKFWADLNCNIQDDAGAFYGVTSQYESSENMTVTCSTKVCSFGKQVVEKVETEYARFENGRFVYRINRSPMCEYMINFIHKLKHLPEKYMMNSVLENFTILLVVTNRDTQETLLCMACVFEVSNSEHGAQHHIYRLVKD
Chain of TEAD1 in SK-HEP1 cells (P28347 whole entry): as above
T1 sequence (P28347 209-426): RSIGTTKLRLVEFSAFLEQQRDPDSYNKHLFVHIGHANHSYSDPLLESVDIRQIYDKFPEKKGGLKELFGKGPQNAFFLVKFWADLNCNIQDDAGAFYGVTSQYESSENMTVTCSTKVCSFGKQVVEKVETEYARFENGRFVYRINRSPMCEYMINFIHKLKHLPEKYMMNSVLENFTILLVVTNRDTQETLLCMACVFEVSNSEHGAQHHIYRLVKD
Chain of hsTEAD4 (217-424) (Q15561 217-434): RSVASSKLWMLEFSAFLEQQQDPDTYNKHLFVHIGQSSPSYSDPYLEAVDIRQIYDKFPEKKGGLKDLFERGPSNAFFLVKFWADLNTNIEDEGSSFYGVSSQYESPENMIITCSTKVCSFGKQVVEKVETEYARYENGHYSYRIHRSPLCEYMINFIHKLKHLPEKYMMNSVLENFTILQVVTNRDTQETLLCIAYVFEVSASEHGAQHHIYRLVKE
Chain of hsTEAD2 (217-447) (Q15562 217-447): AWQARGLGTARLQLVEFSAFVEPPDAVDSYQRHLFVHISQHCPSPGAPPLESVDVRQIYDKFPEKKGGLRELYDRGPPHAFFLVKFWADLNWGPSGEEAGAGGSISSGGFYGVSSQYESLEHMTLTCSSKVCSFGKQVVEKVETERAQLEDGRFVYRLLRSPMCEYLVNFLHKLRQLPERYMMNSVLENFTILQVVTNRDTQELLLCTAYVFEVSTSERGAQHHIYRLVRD

| Structure (SMILES) | DC50 (TEAD1 in NCI-H226 cells; [3]) [nM] | DC50 (TEAD1 in NCI-H226 cells; [4]) [nM] | DC50 (TEAD1 in SK-HEP1 cells; [5]) [nM] | Kd (hsTEAD1 (209-426) [1]) [nM] | ΔTm at 100 µM (hsTEAD3 (216-435)) [°C] | ΔTm at 100 µM (hsTEAD4 (217-424)) [°C] | ΔTm at 100 µM (hsTEAD2 (217-447)) [°C] | ΔTm at 100 µM (hsTEAD1 (209-426) [2]) [°C] | DC50 (TEAD1 in SK-HEP1 cells; [6]) [nM] | DC50 (TEAD1 in NCI-H226 cells; 16 h incubation, read-out: DC50 NCI-H226 16 h) [nM] |
| --- | --- | --- | --- | --- | --- | --- | --- | --- | --- | --- |
| Cn1cc2c3cc(C(=O)NCCOCCOCCNC(=O)COc4cccc5c4C(=O)N(C4CCC(=O)NC4=O)C5=O)ccc3n(-c3ccc(C(F)(F)F)cc3)c2n1 (stereo not shown) [Compound 5, 2-{[2-(2,6-dioxopiperidin-3-yl)-1,3-dioxo-2,3-dihydro-1H-isoindol-4-yl]oxy}-N-(2-{2-[2-({2-methyl-8-[4-(trifluoromethyl)phenyl]-2H,8H-pyrazolo[3,4-b]indol-5-yl}formamido)ethoxy]ethoxy}ethyl)acetamide] | 20000 | 9000 to 30000 | 30000 | 1900 | 0.9 | 2.8 | -0.1 | 3.9 | – | – |
| CN1C(=O)CCC(N2C(=O)c3cccc(NC(=O)COCCOCCOCCOCCNC(=O)c4ccc5c(c4)c4cn(C)nc4n5-c4ccc(C(F)(F)F)cc4)c3C2=O)C1=O (stereo not shown) [Compound 36, N-[2-(1-methyl-2,6-dioxopiperidin-3-yl)-1,3-dioxo-2,3-dihydro-1H-isoindol-4-yl]-14-({2-methyl-8-[4-(trifluoromethyl)phenyl]-2H,8H-pyrazolo[3,4-b]indol-5-yl}formamido)-3,6,9,12-tetraoxatetradecanamide] | – | – | – | 980 | – | – | – | – | – | – |
| Cn1cc2c3cc(C(=O)NCCOCCOCCNC(=O)CCCCCCNc4cccc5c4C(=O)N(C4CCC(=O)NC4=O)C5=O)ccc3n(-c3ccc(C(F)(F)F)cc3)c2n1 (stereo not shown) [Compound 6, 7-{[2-(2,6-dioxopiperidin-3-yl)-1,3-dioxo-2,3-dihydro-1H-isoindol-4-yl]amino}-N-(2-{2-[2-({2-methyl-8-[4-(trifluoromethyl)phenyl]-2H,8H-pyrazolo[3,4-b]indol-5-yl}formamido)ethoxy]ethoxy}ethyl) heptanamide] | – | 100 to 1000 | – | 1400 | – | 1.4 | – | -1.1 | – | – |
| Cn1cc2c3cc(C(=O)NCCOCCOCCNC(=O)COCCOCCOCCOCCOCC(=O)Nc4cccc5c4C(=O)N(C4CCC(=O)NC4=O)C5=O)ccc3n(-c3ccc(C(F)(F)F)cc3)c2n1 (stereo not shown) [Compound 1, N′-[2-(2,6-dioxopiperidin-3-yl)-1,3-dioxo-2,3-dihydro-1H-isoindol-4-yl]-N-(2-{2-[2-({2-methyl-8-[4-(trifluoromethyl)phenyl]-2H,8H-pyrazolo[3,4-b]indol-5-yl}formamido)ethoxy]ethoxy}ethyl)-3,6,9,12,15-pentaoxaheptadecanediamide] | – | – | – | 1870 | 0 | – | 0 | 4.7 | – | – |
| Cc1ncsc1-c1ccc(CNC(=O)[C@H]2C[C@H](O)CN2C(=O)[C@H](NC(=O)COCCOCCOCCOCCOCCNC(=O)c2ccc3c(c2)c2cn(C)nc2n3-c2ccc(C(F)(F)F)cc2)C(C)(C)C)cc1 [Compound 11, (2R,4S)-1-[(2R)-3,3-dimethyl-2-[17-({2-methyl-8-[4-(trifluoromethyl)phenyl]-2H,8H-pyrazolo[3,4-b]indol-5-yl}formamido)-3,6,9,12,15-pentaoxaheptadecanamido]butanoyl]-4-hydroxy-N-{[4-(4-methyl-1,3-thiazol-5-yl)phenyl]methyl}pyrrolidine-2-carboxamide] | – | 100 to 1000 | – | – | 1.3 | -0.2 | 0.3 | 4.5 | 100 to 1000 | – |
| Cc1ncsc1-c1ccc(CNC(=O)[C@@H]2C[C@@H](O)CN2C(=O)[C@@H](NC(=O)COCCOCCOCCOCC(=O)NCCOCCOCCNC(=O)c2ccc3c(c2)c2cn(C)nc2n3-c2ccc(C(F)(F)F)cc2)C(C)(C)C)cc1 [Compound 3, N-[(2S)-1-[(2S,4R)-4-hydroxy-2-({[4-(4-methyl-1,3-thiazol-5-yl)phenyl]methyl}carbamoyl)pyrrolidin-1-yl]-3,3-dimethyl-1-oxobutan-2-yl]-N′-(2-{2-[2-({2-methyl-8-[4-(trifluoromethyl)phenyl]-2H,8H-pyrazolo[3,4-b]indol-5-yl}formamido)ethoxy]ethoxy}ethyl)-3,6,9,12-tetraoxatetradecanediamide] | 10000 | – | – | 320 | – | 0.7 | – | 3.4 | – | 3000 |
| Cn1cc2c3cc(C(=O)NCCOCCOCCNC(=O)COCCOCCOCC(=O)Nc4cccc5c4C(=O)N(C4CCC(=O)NC4=O)C5=O)ccc3n(-c3ccc(C(F)(F)F)cc3)c2n1 (stereo not shown) [Compound 2, 2-{2-[2-({[2-(2,6-dioxopiperidin-3-yl)-1,3-dioxo-2,3-dihydro-1H-isoindol-4-yl]carbamoyl}methoxy)ethoxy]ethoxy}-N-(2-{2-[2-({2-methyl-8-[4-(trifluoromethyl)phenyl]-2H,8H-pyrazolo[3,4-b]indol-5-yl}formamido)ethoxy]ethoxy}ethyl)acetamide] | – | – | – | 1520 | 1.3 | 0 | 0.7 | 4.1 | – | – |
| Cn1cc2c3cc(C(=O)NCCOCCOCCNC(=O)CCCCNc4cccc5c4CN(C4CCC(=O)NC4=O)C5=O)ccc3n(-c3ccc(C(F)(F)F)cc3)c2n1 (stereo not shown) [Compound 9, 5-{[2-(2,6-dioxopiperidin-3-yl)-1-oxo-2,3-dihydro-1H-isoindol-4-yl]amino}-N-(2-{2-[2-({2-methyl-8-[4-(trifluoromethyl)phenyl]-2H,8H-pyrazolo[3,4-b]indol-5-yl}formamido)ethoxy]ethoxy}ethyl) pentanamide] | 30000 | – | 2400 | 970 | – | – | – | – | 1000 to 3000 | – |
